Measured values reported in patent US9085576B2 (AMGEN INC., priority 2013, dated 2015).

What was measured:
Cathepsin D (Cat D) = Cathepsin D (Cat D) (Homo sapiens (Human), UniProt P07339); experiment: In vitro enzymatic Cathepsin D (Cat D) FRET assay; assay type: biochemical; settings: read-out: CatD IC50
BACE = BACE (Homo sapiens (Human), UniProt P56817); experiment: In vitro BACE cell-based assay (Aβ40 in conditioned medium, sandwich ELISA)
[1] = target: Beta Secretase enzyme (BACE) (Homo sapiens (Human), UniProt P56817); experiment: In vitro enzymatic BACE FRET assay; assay type: biochemical; settings: read-out: BACE1 Enzyme assay IC50
Chain of Beta Secretase enzyme (BACE) (P56817 46-501): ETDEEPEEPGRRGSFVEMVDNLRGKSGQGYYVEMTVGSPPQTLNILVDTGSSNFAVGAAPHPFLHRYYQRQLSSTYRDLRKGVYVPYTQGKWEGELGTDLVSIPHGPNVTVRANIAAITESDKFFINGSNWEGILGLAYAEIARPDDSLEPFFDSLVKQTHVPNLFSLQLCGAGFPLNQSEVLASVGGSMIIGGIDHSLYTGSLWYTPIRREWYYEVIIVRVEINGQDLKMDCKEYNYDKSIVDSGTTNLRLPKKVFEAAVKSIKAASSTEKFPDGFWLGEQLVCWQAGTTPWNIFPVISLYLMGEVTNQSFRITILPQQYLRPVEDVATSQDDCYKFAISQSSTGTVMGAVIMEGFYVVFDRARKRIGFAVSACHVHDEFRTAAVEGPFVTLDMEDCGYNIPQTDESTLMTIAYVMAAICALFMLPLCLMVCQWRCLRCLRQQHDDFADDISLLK

Chain of BACE (P56817 46-501, species assumed): as the sequence (P56817 46-501) above
Chain of Cathepsin D (Cat D) (P07339 65-412, species assumed): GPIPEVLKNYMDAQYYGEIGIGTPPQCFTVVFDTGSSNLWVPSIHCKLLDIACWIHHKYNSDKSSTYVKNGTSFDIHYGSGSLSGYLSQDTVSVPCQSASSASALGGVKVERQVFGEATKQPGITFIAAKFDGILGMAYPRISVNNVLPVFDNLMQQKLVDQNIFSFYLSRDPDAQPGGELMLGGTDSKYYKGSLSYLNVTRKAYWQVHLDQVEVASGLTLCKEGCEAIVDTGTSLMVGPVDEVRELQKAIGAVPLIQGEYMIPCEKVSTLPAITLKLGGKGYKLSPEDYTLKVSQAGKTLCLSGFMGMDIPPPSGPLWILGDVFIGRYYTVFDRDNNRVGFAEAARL

Structure (SMILES) | IC50 (Cathepsin D (Cat D)) [µM] | IC50 (BACE) [µM] | IC50 [1] [nM]
Cc1cccnc1C(=O)Nc1ccc(F)c([C@@]2(C(F)F)N=C(N)O[C@@H]3C[C@@H]32)c1 [Example 293] | 1660 | 0.601 | 271
COc1cnc(C(=O)Nc2cc(C)c(F)c([C@@]3(C(F)F)N=C(N)O[C@@H]4C[C@@H]43)c2)c(C)n1 [Example 300, N-(3-((1R,5S,6R)-3-amino-5-(difluoromethyl)-2-oxa-4-azabicyclo[4.1.0]hept-3-en-5-yl)-4-fluoro-5-methylphenyl)-5-methoxy-3-methylpyrazine-2-carboxamide] | 447 | 0.0405 | 142
COc1cnc(C(=O)Nc2cc(C)c(F)c([C@@]3(C(F)F)N=C(N)O[C@@H]4C[C@@H]43)c2)c(C)c1 [Example 305, N-(3-((1R,5S,6R)-3-amino-5-(difluoromethyl)-2-oxa-4-azabicyclo[4.1.0]hept-3-en-5-yl)-4-fluoro-5-methylphenyl)-5-methoxy-3-methylpicolinamide] | 288 | 0.0696 | 118
COc1cc(F)cnc1C(=O)Nc1ccc(F)c([C@@]2(C(F)F)N=C(N)O[C@@H]3C[C@@H]32)c1 [Example 307, N-(3-((1R,5S,6R)-3-amino-5-(difluoromethyl)-2-oxa-4-azabicyclo[4.1.0]hept-3-en-5-yl)-4-fluorophenyl)-5-fluoro-3-methoxypicolinamide] | > 400 | 0.139 | 413
Cc1cc(C#N)cnc1C(=O)Nc1cc(F)c(C)c([C@@]2(C(F)F)N=C(N)O[C@@H]3C[C@@H]32)c1 [Example 310, N-(3-((1R,5S,6R)-3-amino-5-(difluoromethyl)-2-oxa-4-azabicyclo[4.1.0]hept-3-en-5-yl)-5-fluoro-4-methylphenyl)-5-cyano-3-methylpicolinamide] | 1770 | > 15.6 | > 40000
Cc1cc(C#N)cnc1C(=O)Nc1cc(F)c(C)c([C@]2(C(F)F)N=C(N)O[C@H]3C[C@H]32)c1 [Example 311, N-(3-((1S,5R,6S)-3-amino-5-(difluoromethyl)-2-oxa-4-azabicyclo[4.1.0]hept-3-en-5-yl)-5-fluoro-4-methylphenyl)-5-cyano-3-methylpicolinamide] | 294 | 0.0174 | 46.6
CC#Cc1ccc(C(=O)Nc2ccc(F)c([C@@]3(C(F)F)N=C(N)O[C@@H]4C[C@@H]43)c2)nc1 [Example 314, N-(3-((1R,5S,6R)-3-amino-5-(difluoromethyl)-2-oxa-4-azabicyclo[4.1.0]hept-3-en-5-yl)-4-fluorophenyl)-5-(prop-1-yn-1-yl)picolinamide] | 421 | 0.0891 | 46.7
C[C@]1(c2nc(NC(=O)c3ccc(C#N)cn3)ccc2F)N=C(N)O[C@@H]2C[C@@H]21 [Example 324, N-(6-((1R,5S,6R)-3-amino-5-methyl-2-oxa-4-azabicyclo[4.1.0]hept-3-en-5-yl)-5-fluoropyridin-2-yl)-5-cyanopicolinamide] | 182 | 0.0283 | 150
C[C@]1(c2nc(NC(=O)c3ccc(Cl)cn3)ccc2F)N=C(N)O[C@@H]2C[C@@H]21 [Example 326, N-(6-((1R,5S,6R)-3-amino-5-methyl-2-oxa-4-azabicyclo[4.1.0]hept-3-en-5-yl)-5-fluoropyridin-2-yl)-5-chloropicolinamide] | 279 | 0.0323 | 242
C[C@@]1(c2nc(NC(=O)c3ccc(Cl)cn3)ccc2F)N=C(N)O[C@H]2C[C@H]21 [Example 327, N-(6-((1S,5R,6S)-3-amino-5-methyl-2-oxa-4-azabicyclo[4.1.0]hept-3-en-5-yl)-5-fluoropyridin-2-yl)-5-chloropicolinamide] | 1320 | 0.703 | 2140
C[C@]1(c2nc(NC(=O)c3ncc(Cl)cc3Cl)ccc2F)N=C(N)O[C@@H]2C[C@@H]21 [Example 328, N-(6-((1R,5S,6R)-3-amino-5-methyl-2-oxa-4-azabicyclo[4.1.0]hept-3-en-5-yl)-5-fluoropyridin-2-yl)-3,5-dichloropicolinamide] | 512 | 0.0116 | 103
C[C@@]1(c2nc(NC(=O)c3ncc(Cl)cc3Cl)ccc2F)N=C(N)O[C@H]2C[C@H]21 [Example 329, N-(6-((1S,5R,6S)-3-amino-5-methyl-2-oxa-4-azabicyclo[4.1.0]hept-3-en-5-yl)-5-fluoropyridin-2-yl)-3,5-dichloropicolinamide] | 1610 | 9.6 | > 40000
N#Cc1ccc(C(=O)Nc2ccc(F)c([C@@]3(C(F)F)N=C(N)O[C@@H]4C[C@@H]43)n2)nc1 [Example 331, N-(6-((1R,5S,6R)-3-amino-5-(difluoromethyl)-2-oxa-4-azabicyclo[4.1.0]hept-3-en-5-yl)-5-fluoropyridin-2-yl)-5-cyanopicolinamide] | 1510 | > 15.6 | 26700
COc1cnc2c(Nc3ccc(F)c([C@@]4(C)N=C(N)O[C@@H]5C[C@@H]54)c3)nccc2c1 [Example 340, (1R,5S,6R)-5-(2-fluoro-5-((3-methoxy-1,7-naphthyridin-8-yl)amino)phenyl)-5-methyl-2-oxa-4-azabicyclo[4.1.0]hept-3-en-3-amine] | > 400 | 0.0796 | 506

Continued, values first:

IC50 (Cathepsin D (Cat D)) [µM] | IC50 (BACE) [µM] | IC50 [1] [nM] | Structure (SMILES)
684 | 0.0612 | 314 | COc1cnc(C(=O)Nc2ccc(C)c([C@@]3(C(F)F)N=C(N)O[C@@H]4C[C@@H]43)c2)cn1 [Example 294, N-(3-((1R,5S,6R)-3-amino-5-(difluoromethyl)-2-oxa-4-azabicyclo[4.1.0]hept-3-en-5-yl)-4-methylphenyl)-5-methoxypyrazine-2-carboxamide]
464 | 0.0129 | 90.3 | Cc1ccc(NC(=O)c2ccc(Cl)cn2)cc1[C@@]1(C(F)F)N=C(N)O[C@@H]2C[C@@H]21 [Example 295, N-(3-((1R,5S,6R)-3-amino-5-(difluoromethyl)-2-oxa-4-azabicyclo[4.1.0]hept-3-en-5-yl)-4-methylphenyl)-5-chloropicolinamide]
1860 | 3.51 | 4180 | NC1=N[C@](c2cc(NC(=O)c3ccc(Br)cn3)ccc2F)(C(F)F)[C@@H]2C[C@@H]2O1 [Example 296, N-(3-((1S,5R,6S)-3-amino-5-(difluoromethyl)-2-oxa-4-azabicyclo[4.1.0]hept-3-en-5-yl)-4-fluorophenyl)-5-bromopicolinamide]
715 | 0.031 | 352 | COc1cnc(C(=O)Nc2ccc(Cl)c([C@@]3(CF)N=C(N)O[C@@H]4C[C@@H]43)c2)c(C)n1 [Example 301, N-(3-((1R,5S,6R)-3-amino-5-(fluoromethyl)-2-oxa-4-azabicyclo[4.1.0]hept-3-en-5-yl)-4-chlorophenyl)-5-methoxy-3-methylpyrazine-2-carboxamide]
186 | 0.0321 | 17.7 | NC1=N[C@@](c2cc(NC(=O)c3ncc(Cl)cc3CF)ccc2F)(C(F)F)[C@H]2C[C@H]2O1 [Example 308, N-(3-((1R,5S,6R)-3-amino-5-(difluoromethyl)-2-oxa-4-azabicyclo[4.1.0]hept-3-en-5-yl)-4-fluorophenyl)-5-chloro-3-(fluoromethyl) picolinamide]
556 | 0.0927 | 93.6 | Cc1nc(OCC(F)(F)F)cnc1C(=O)Nc1cc(F)c(Cl)c([C@@]2(CF)N=C(N)O[C@@H]3C[C@@H]32)c1 [Example 315, N-(3-((1R,5S,6R)-3-amino-5-(fluoromethyl)-2-oxa-4-azabicyclo[4.1.0]hept-3-en-5-yl)-4-chloro-5-fluorophenyl)-3-methyl-5-(2,2,2-trifluoroethoxy)pyrazine-2-carboxamide]
1080 | > 15.6 | > 40000 | Cc1nc(OCC(F)(F)F)cnc1C(=O)Nc1cc(F)c(Cl)c([C@]2(CF)N=C(N)O[C@H]3C[C@H]32)c1 [Example 316, N-(3-((1S,5R,6S)-3-amino-5-(fluoromethyl)-2-oxa-4-azabicyclo[4.1.0]hept-3-en-5-yl)-4-chloro-5-fluorophenyl)-3-methyl-5-(2,2,2-trifluoroethoxy)pyrazine-2-carboxamide]
41 | 0.0014 | 2.8 | C#CCOc1cnc(C(=O)Nc2cc(F)c(Cl)c([C@@]3(CF)N=C(N)O[C@@H]4C[C@@H]43)c2)cn1 [Example 317, N-(3-((1R,5S,6R)-3-amino-5-(fluoromethyl)-2-oxa-4-azabicyclo[4.1.0]hept-3-en-5-yl)-4-chloro-5-fluorophenyl)-5-(prop-2-yn-1-yloxy)pyrazine-2-carboxamide]
370 | 1.49 | 4070 | C#CCOc1cnc(C(=O)Nc2cc(F)c(Cl)c([C@]3(CF)N=C(N)O[C@H]4C[C@H]43)c2)cn1 [Example 318]
> 400 | > 15.6 | > 40000 | COc1cnc(C(=O)Nc2ccc(F)c([C@]3(C)N=C(N)O[C@H]4C[C@H]43)n2)cn1 [Example 323, N-(6-((1S,5R,6S)-3-amino-5-methyl-2-oxa-4-azabicyclo[4.1.0]hept-3-en-5-yl)-5-fluoropyridin-2-yl)-5-methoxypyrazine-2-carboxamide]
402 | 0.0089 | 94.4 | C[C@]1(c2cc(NC(=O)c3ccc(Cl)cn3)cnc2F)N=C(N)O[C@@H]2C[C@@H]21 [Example 334, N-(5-((1R,5S,6R)-3-amino-5-methyl-2-oxa-4-azabicyclo[4.1.0]hept-3-en-5-yl)-6-fluoropyridin-3-yl)-5-chloropicolinamide]
> 400 | 0.0416 | 436 | COc1cnc(C(=O)Nc2cnc(F)c([C@]3(C)N=C(N)O[C@H]4C[C@H]43)c2)cn1 [Example 336, N-(5-((1(R,S),5(S,R),6(R,S))-3-amino-5-methyl-2-oxa-4-azabicyclo[4.1.0]hept-3-en-5-yl)-6-fluoropyridin-3-yl)-5-methoxypyrazine-2-carboxamide]
